Assay results reported in patent US12465567B2, “Enhanced antibiotic and drug delivery for aqueous topical applications for human and veterinary uses” (priority 2018, dated 2025).

What was measured:
[1] = in-vitro skin penetration, vertical diffusion cell
Method: Skin penetration studies were carried out using porcine full-thickness skin (Procured from Department of Animal and Range Sciences, SDSU) and excised human skin (NDRI, Philadelphia, PA). The skin was sandwiched between the two compartments of a vertical diffusion cell and equilibrated for 3 hrs. The receptor compartment was filled with phosphate buffer (pH 7.4) and was maintained at 37° C. with stirring. […] Samples (200μ) were removed from the receptor compartment at predetermined intervals and replaced with an equal volume of fresh buffer. To study the effect of the formulation forming a skin depot, in a separate experiment the skin was treated for 6 hrs and the treatment was removed. The donor compartment was replaced with plain buffer (pH 7.4) and the study was continued for 48 hrs. At the end of the study the skin was taken out and stratum corneum (SC) was removed using tape stripping and the tape strips were soaked in 50% ethanol overnight to extract the drug. The remaining skin (epidermis and dermis) was homogenized using 1M sodium hydroxide solution. Scintillation cocktail was added to all the samples and the radioactive counts were measured in a scintillation counter (Beckman).

[2] = tested on: reconstructed human skin (EPI-200; Epiderm); assay: in vitro skin irritation, MTT viability assay; type: cell-based
Method: In vitro skin irritation studies were carried out using reconstructed human skin (EPI-200; Epiderm; Mattek Corporation, Ashland, MA). […] Briefly, the MTT assay was performed by transferring the tissues to 24-well plates containing MTT medium (1 mg/ml). After 3 hours, formazan salt formed by cellular mitochondria was extracted with 2 ml/tissue of isopropanol and the optical density will be measured using a plate reader at 570 nm. Relative cell viability will be calculated as % of the mean of the negative control. The cytotoxicity was estimated by the time to kill 50% of the cells (ET-50).

CN(C)[C@@H]1C(O)=C(C(N)=O)C(=O)[C@@]2(O)C(O)=C3C(=O)c4c(O)cccc4[C@@](C)(O)[C@H]3C[C@@H]12 [tetracycline]
amount of tetracycline in the human skin [1]: 20-60 μg/sq·cm

Triton X-100 [Positive control]
ET 50 Value [2]: 5.28 h
